Test results reported in US20220169680A1 (priority 2018, published 2022).

Experiments:
Type in all cases: cell-based
[1] = tested on: A549 cells
[2] = tested on: HeLa cells
[3] = tested on: MRCS cells
[4] = tested on: 293T cells
[5] = tested on: A549 cells; remark: listed apart in the source
[6] = tested on: A549 cells; remark: listed apart in the source
[7] = tested on: A549 cells; remark: listed apart in the source

Sequence	cell-penetrating peptide function compared with the parent polypeptide [1]	cell-penetrating peptide function compared with the parent polypeptide [3]	cell-penetrating peptide function compared with the parent polypeptide [4]	ability to carry small RNA into cells compared with the transfection reagent RNAiMax group, qPCR [6]	further results
CIYRRLKYGLKRGPSTEG [Jilin-2004(H5N1)-M2-50-67]					cell entry [1]: entered A549 cells; cell entry at lower concentrations [1]: could still enter A549 cells; cell penetration properties [2]: consistent with the results obtained using A549 cells; cell penetration properties [3]: consistent with the results obtained using A549 cells
DRFFFKRIFRRFKFRLKRRPST [Jilin-2004(H5N1)-M2-44-65 mut12]	stronger than that of the parent Jilin-2004(H5N1)-M2-44-65 polypeptide	stronger than that of the parent Jilin-2004(H5N1)-M2-44-65 polypeptide	stronger than that of the parent Jilin-2004(H5N1)-M2-44-65 polypeptide		
DRFFFKRIYRRLKYRLKRRPKV [Jilin-2004(H5N1)-M2-44-65 mut9]	stronger than that of the parent Jilin-2004(H5N1)-M2-44-65 polypeptide	stronger than that of the parent Jilin-2004(H5N1)-M2-44-65 polypeptide	stronger than that of the parent Jilin-2004(H5N1)-M2-44-65 polypeptide		
DRFFFKRIYRRLKYRLKRRPST [Jilin-2004(H5N1)-M2-44-65 mut8]	stronger than that of the parent Jilin-2004(H5N1)-M2-44-65 polypeptide	stronger than that of the parent Jilin-2004(H5N1)-M2-44-65 polypeptide	stronger than that of the parent Jilin-2004(H5N1)-M2-44-65 polypeptide		ability to carry small RNA compared with the other two polypeptides tested [5]: even stronger; carrying Cy3-labeled small RNA into cells [5]: can carry small RNA into cells; effect compared with transfection reagent RNAiMax [5]: stronger than that of the transfection reagent RNAiMax
DRLFFKCIYRRLKYGLKRRPST [Jilin-2004(H5N1)-M2-44-65 mut25]	stronger than that of the parent Jilin-2004(H5N1)-M2-44-65 polypeptide	stronger than that of the parent Jilin-2004(H5N1)-M2-44-65 polypeptide	stronger than that of the parent Jilin-2004(H5N1)-M2-44-65 polypeptide		
DRLFFKCIYRRLKYRLKRRPST [Jilin-2004(H5N1)-M2-44-65 mut26]	stronger than that of the parent Jilin-2004(H5N1)-M2-44-65 polypeptide		stronger than that of the parent Jilin-2004(H5N1)-M2-44-65 polypeptide	stronger than the transfection reagent RNAiMax group	
DRLFFKRIYRRLKYRLKRRPST [Jilin-2004(H5N1)-M2-44-65 mut27]			stronger than that of the parent Jilin-2004(H5N1)-M2-44-65 polypeptide	stronger than the transfection reagent RNAiMax group	
FFKCIYRRLKYGLKRGPS [Jilin-2004(H5N1)-M2-47-64]					cell entry [1]: entered A549 cells; cell entry at lower concentrations [1]: could still enter A549 cells; cell entry effect compared with TAT positive control [1]: stronger than that of the TAT polypeptide; cell penetration properties [2]: consistent with the results obtained using A549 cells; cell penetration properties [3]: consistent with the results obtained using A549 cells
RRFFFKCIYRRLKYGLKRGPST [Jilin-2004(H5N1)-M2-44-65 mut17]			stronger than that of the parent Jilin-2004(H5N1)-M2-44-65 polypeptide	stronger than the transfection reagent RNAiMax group	
SLFFKCIYRRLKYGLKRG [Jilin-2004(H5N1)-M2-45-62 mut45]				stronger than the transfection reagent RNAiMax group	cell-penetrating peptide function compared with the parent polypeptide (confocal imaging) [7]: stronger than that of the parent Jilin-2004(H5N1)-M2-45-62 polypeptide
